According to US20140106390A1, “BIOMARKERS FOR THE TREATMENT OF MULTIPLE MYELOMA” (CELGENE CORPORATION, priority 2011, published 2014):

Assays:
[1] = compared with the racemic mixture; cited from earlier work
serum M-protein = test: Tumor growth inhibition (TGI) model for pomalidomide single agent fitted to serum M-protein data, Phase I/II pomalidomide study; format: in vivo, patients; settings: population estimate
Procedure: The Phase I segment investigates whether pomalidomide single agent dose could be escalated up to 5 mg daily using the cyclic schedule. The Phase II segment has progression free survival (PFS) as the primary endpoint and an interim analysis is planned at 50% of the events.
A semi-mechanistic exposure-driven tumor growth inhibition (TGI) model was used to model serum M-protein data (taken as a marker of tumor size) as function of time and drug dose levels. The TGI model is described by the following differential equation system: […]
where y(t) is the at time t with y0 value at baseline (g/L),
KL, is the rate of M-protein level increase (tumor growth rate) (week^−1),
KD, is the rate of drug-induced M-protein decrease (drug potency, mg^−1.week^−1)
KD decreases with time (from KD,0 at time 0, full effect) with the rate constant λ, (week^−1)
D (t) is the amount of drug at the site of action (mg) (“KPD model”) (see Jacqim et al., J. Pharmacokinet. Pharmacodyn. (2007), 31: 57-85),
Kp is the elimination rate constant from the virtual biophase compartment (week^−1).
Model parameters were estimated by maximum likelihood in non-linear mixed effect model using NONMEM VI level 1.0 FOCE method with interaction (Beal et al., NONMEM user's guide. (1992) San Francisco: University of California at San Francisco NONMEM Project Group). […]

[2] = Phase Ib ascending dose study of pomalidomide (MTD); format: in vivo; settings: 45 relapsed and refractory multiple myeloma patients
Procedure: M-protein measurements entered from data with pomalidomide in relapsed and refractory multiple myeloma patients consists of one completed and two ongoing studies. In a Phase Ib ascending dose study in 45 patients, the MTD of pomalidomide was 2 mg administered daily or 5 mg administered on an every other day schedule. These subjects tolerated alternate day dosing better than daily dosing based on dose-limiting toxicity (DLT), however, the AE profiles were similar for both dosing regimens.

Row | Structure (SMILES) | potency [1] | λ, rate constant of decrease of KD with time (resistance appearance), estimate (serum M-protein) [wk^−1] | KL, rate of M-protein level increase (tumor growth rate), estimate (serum M-protein; 37 patients) [wk^−1] | MTD ([2]; administered daily) [mg] | MTD ([2]; administered on an every other day schedule) [mg]
1 | Nc1cccc2c1C(=O)N([C@H]1CCC(=O)NC1=O)C2=O [(S)-isomer of 4-(amino)-2-(2,6-dioxo(3-piperidyl))-isoindoline-1,3-dione, (S)-4-(amino)-2-(2,6-dioxo(3-piperidyl))-isoindoline-1,3-dione] | higher potency than the racemic mixture |  |  |  | 
2 | Nc1cccc2c1C(=O)N(C1CCC(=O)NC1=O)C2=O (centres unmarked) [pomalidomide, 4-amino-2-(2,6-dioxopiperidin-3-yl)isoindole-1,3-dione] |  | 0.128 | 0.036 | 2 | 5
